Measurements from ChEMBL document CHEMBL1201862, “PubChem BioAssay data set” (2004).
Activity calls are given as the source filed them.

Columns and labels:
[1] = target: T1, Caspase-3 (Homo sapiens, UniProt P42574); test: inhibition of recombinant caspase-3 activity – biochemical, luminescence, set 2, selectivity assay for SENP protease inhibitor project, SAR follow-up (AID 588599); assay type: functional
T1 sequence (P42574 whole entry): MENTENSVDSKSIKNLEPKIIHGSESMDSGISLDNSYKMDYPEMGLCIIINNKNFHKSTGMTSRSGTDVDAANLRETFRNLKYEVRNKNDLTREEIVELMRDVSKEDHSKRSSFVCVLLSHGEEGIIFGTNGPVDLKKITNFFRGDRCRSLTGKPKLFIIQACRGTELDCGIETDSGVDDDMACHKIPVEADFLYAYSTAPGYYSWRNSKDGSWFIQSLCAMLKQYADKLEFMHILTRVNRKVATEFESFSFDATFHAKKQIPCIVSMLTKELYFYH

[2] = target: T2, Sentrin-specific protease 6 (Homo sapiens, UniProt Q9GZR1); test: inhibition of human SENP6 catalytic domain – biochemical, luminescence, set 2, SAR follow-up (AID 588598); assay type: functional
T2 sequence (Q9GZR1 whole entry): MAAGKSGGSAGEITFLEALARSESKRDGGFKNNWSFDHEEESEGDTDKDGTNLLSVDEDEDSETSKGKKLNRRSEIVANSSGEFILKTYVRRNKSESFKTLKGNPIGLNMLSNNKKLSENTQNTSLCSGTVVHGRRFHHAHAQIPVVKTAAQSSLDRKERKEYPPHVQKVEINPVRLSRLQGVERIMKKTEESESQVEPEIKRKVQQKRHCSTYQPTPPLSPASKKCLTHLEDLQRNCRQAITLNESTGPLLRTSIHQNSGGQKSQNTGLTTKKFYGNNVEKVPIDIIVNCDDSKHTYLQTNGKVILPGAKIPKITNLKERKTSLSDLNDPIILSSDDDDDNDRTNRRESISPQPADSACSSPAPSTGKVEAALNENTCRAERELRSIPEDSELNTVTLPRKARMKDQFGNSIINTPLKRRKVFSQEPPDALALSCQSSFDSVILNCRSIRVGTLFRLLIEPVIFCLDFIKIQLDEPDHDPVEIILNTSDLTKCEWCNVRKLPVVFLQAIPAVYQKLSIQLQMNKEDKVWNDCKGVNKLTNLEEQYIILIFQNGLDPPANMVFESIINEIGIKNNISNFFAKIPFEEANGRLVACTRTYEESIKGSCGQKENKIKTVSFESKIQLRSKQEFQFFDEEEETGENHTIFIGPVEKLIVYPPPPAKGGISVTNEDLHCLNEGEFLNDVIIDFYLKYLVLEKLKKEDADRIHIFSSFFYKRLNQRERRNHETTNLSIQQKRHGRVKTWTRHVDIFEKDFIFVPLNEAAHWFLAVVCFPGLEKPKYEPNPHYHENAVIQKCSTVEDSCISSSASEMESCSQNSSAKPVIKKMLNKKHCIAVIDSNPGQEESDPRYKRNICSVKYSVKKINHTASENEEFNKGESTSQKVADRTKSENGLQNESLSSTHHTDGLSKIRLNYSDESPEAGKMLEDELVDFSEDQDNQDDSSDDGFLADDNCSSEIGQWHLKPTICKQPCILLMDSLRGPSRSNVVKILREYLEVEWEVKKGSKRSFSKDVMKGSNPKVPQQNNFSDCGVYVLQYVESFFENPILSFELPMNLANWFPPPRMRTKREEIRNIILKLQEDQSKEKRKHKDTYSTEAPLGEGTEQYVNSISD

[3] = target: T3, Sentrin-specific protease 7 (Homo sapiens, UniProt Q9BQF6); test: inhibition of human SENP7 cleavage activity – biochemical, luminescence, set 2, SAR follow-up (AID 588600); assay type: functional
T3 sequence (Q9BQF6 whole entry): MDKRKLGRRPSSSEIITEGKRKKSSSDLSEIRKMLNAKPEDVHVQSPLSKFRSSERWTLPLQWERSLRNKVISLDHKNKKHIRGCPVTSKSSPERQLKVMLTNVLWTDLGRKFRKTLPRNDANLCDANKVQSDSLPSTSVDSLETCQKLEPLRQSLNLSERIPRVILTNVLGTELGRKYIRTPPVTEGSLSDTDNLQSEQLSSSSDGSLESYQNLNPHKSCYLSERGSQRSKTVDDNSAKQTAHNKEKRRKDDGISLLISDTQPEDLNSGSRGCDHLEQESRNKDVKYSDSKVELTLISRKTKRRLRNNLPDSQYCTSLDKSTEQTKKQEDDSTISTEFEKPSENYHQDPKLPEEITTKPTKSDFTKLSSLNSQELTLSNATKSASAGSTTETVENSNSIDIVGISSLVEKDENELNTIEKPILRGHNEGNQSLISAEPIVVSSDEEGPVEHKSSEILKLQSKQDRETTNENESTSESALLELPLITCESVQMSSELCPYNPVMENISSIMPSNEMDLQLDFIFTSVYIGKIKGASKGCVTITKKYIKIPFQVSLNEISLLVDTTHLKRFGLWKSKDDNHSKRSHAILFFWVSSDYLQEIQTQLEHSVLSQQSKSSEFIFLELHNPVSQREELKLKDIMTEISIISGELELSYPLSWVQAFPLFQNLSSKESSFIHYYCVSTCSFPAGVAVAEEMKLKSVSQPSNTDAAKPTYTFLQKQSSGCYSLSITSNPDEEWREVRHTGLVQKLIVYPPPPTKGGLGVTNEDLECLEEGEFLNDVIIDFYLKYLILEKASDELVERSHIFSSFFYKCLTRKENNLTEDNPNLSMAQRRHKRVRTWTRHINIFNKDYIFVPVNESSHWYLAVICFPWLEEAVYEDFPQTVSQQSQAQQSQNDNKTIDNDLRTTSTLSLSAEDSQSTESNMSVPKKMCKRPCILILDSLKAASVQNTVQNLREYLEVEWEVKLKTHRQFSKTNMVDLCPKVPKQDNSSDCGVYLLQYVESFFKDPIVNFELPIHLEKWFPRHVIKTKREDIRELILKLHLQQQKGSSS

[4] = target: T4, Sentrin-specific protease 8 (Homo sapiens, UniProt Q96LD8); test: inhibition of sentrin protease 8 – biochemical, luminescence, set 2, SAR follow-up (AID 588601); assay type: functional
T4 sequence (Q96LD8 whole entry): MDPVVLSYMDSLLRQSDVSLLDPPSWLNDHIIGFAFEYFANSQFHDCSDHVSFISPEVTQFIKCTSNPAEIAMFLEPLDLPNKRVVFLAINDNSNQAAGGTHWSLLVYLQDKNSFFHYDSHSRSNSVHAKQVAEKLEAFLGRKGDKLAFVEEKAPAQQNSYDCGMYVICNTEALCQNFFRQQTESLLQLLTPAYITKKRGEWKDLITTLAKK

[5] = test system: Escherichia coli; test: microbe, parasite or virus in culture
[6] = target: 5-hydroxytryptamine receptor 5A (Homo sapiens, UniProt P47898); test: Counterscreen for agonists of OPRM1-OPRD1 heterodimerization: luminescence-based cell-based high throughput dose response assay to identify agonists of 5-hydroxytryptamine (serotonin) 5A receptor (HTR5A). [Related pubchem assays (depositor defined):AID504326, AID504355, AID504692, AID504904, AID504905]; assay type: functional
5-hydroxytryptamine receptor 5A, sequence (P47898 whole entry): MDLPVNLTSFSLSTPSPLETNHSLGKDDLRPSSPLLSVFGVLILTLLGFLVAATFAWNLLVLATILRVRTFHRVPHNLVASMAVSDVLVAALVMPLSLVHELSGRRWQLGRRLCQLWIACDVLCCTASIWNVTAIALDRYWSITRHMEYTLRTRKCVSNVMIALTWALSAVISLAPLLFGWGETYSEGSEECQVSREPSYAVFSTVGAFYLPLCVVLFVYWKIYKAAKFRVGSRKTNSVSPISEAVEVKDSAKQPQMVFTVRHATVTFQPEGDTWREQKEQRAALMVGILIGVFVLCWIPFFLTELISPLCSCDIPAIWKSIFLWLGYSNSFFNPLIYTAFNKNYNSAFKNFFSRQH

[7] = target: Mu-type opioid receptor (Homo sapiens, UniProt P35372); test: (§1) Counterscreen for agonists of heterodimerization of the mu 1 (OPRM1) and delta 1 (OPRD1) opioid receptors: Luminescence-based cell-based high throughput dose response assay to identify agonists of OPRM1 homodimerization.; assay type: functional
Mu-type opioid receptor, sequence (P35372 whole entry): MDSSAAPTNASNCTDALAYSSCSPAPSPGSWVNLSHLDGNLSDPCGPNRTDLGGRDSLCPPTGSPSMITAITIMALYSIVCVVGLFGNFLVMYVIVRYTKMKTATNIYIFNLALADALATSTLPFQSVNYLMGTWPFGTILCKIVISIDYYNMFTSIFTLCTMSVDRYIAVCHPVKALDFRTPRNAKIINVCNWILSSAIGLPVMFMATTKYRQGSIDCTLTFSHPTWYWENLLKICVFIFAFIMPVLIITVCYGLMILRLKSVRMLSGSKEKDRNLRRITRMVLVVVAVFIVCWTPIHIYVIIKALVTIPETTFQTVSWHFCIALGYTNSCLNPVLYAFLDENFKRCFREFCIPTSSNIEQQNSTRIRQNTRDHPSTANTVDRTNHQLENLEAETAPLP

[8] = target: T5, Short transient receptor potential channel 4 (Mus musculus, UniProt Q9QUQ5); test: calcium entry via TRPC4 opening agents – cell-based, HEK293 TRPC4/mu-opioid, Fluo-4 calcium, dose response (AID 434937); assay type: functional
T5 sequence (Q9QUQ5 whole entry): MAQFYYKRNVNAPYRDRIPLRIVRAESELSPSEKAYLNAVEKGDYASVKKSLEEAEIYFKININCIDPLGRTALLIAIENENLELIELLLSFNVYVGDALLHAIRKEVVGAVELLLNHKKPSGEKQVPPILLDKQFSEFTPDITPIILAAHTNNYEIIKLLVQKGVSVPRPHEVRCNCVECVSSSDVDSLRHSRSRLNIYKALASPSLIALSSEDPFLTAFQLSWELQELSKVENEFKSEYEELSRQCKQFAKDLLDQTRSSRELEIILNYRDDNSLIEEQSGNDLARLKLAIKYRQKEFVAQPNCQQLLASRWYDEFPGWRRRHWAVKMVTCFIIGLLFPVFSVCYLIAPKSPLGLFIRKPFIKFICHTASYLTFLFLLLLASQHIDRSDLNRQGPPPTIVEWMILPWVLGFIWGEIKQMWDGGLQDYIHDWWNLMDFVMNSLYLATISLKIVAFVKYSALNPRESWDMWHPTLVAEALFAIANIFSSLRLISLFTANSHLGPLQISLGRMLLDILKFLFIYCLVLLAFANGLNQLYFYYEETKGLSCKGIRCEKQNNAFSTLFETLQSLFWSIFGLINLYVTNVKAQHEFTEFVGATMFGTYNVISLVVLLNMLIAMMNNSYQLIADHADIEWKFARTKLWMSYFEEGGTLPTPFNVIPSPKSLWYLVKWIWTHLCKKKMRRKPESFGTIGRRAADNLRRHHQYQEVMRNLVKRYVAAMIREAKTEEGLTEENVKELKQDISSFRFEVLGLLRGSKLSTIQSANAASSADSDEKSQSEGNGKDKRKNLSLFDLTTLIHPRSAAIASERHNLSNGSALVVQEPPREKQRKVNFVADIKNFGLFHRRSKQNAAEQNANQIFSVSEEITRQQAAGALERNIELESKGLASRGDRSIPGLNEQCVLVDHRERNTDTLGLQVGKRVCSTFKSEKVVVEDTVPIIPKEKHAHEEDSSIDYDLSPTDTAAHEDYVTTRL

[9] = target: Delta-type opioid receptor (Homo sapiens, UniProt P41143); test: as §1, with “of OPRD1” for “of OPRM1”, “homodimerization. [Related pubchem assays (depositor defined):AID504326, AID504355, AID504692, AID504904, AID504905]” for “homodimerization.”; assay type: functional
Delta-type opioid receptor, sequence (P41143 whole entry): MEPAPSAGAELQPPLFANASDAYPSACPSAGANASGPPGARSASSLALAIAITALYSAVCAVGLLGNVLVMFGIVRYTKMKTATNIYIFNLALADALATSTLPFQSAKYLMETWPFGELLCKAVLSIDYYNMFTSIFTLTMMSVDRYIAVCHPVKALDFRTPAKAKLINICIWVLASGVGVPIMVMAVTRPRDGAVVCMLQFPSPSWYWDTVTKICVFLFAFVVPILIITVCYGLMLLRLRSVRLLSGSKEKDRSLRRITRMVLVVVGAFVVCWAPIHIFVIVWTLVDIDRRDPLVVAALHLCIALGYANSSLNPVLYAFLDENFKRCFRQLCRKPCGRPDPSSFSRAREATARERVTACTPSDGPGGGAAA

[10] = Trypanosoma cruzi growth suppression in host cells – NIH3T3 host cells, beta-gal luminescence, confirmation (AID 2044); assay type: functional, cell-based;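 also: intracellular parasites grown in NIH/3T3 mouse fibroblasts as host cells; luminescent beta-galactosidase reporter signal from transgenic T. cruzi replicating inside host cells; inhibitors lower the luminescence signal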
[11] = target: Dual specificity protein kinase CLK1 (Homo sapiens, UniProt P49759); test: inhibition of human CLK1 activity – biochemical, cherry-picked samples, selectivity assay for Dyrk1A inhibitor project, dose response (AID 588811)
Dual specificity protein kinase CLK1, sequence (P49759 whole entry): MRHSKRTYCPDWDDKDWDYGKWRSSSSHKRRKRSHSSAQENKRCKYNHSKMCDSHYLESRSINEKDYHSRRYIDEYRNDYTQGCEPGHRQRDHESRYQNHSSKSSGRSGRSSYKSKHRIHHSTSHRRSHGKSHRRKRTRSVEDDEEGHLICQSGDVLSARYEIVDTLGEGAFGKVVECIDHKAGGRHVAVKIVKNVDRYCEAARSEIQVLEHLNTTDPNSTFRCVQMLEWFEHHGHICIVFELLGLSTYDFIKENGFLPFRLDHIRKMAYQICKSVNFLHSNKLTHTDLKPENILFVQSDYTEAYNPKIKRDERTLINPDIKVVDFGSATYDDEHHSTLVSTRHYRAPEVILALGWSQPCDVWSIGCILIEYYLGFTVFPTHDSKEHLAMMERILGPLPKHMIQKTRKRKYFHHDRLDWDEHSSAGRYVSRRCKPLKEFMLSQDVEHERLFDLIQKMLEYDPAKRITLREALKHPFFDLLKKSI

[12] = NIH3T3 cell viability loss – ATP luminescence, mouse fibroblasts, counter-screen, dose response (AID 2010); assay type: functional, cell-based;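 also: cells exposed to compound for about 90 hours before reading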
[13] = test system: Escherichia coli; test: microbe, parasite or virus in culture; remark: listed apart in the source
[14] = target: Nonstructural protein 1 (Influenza A virus, UniProt Q194T2); assay type: functional, Influenza A virus (A/California/07/2009(H1N1))
Nonstructural protein 1, sequence (Q194T2 whole entry): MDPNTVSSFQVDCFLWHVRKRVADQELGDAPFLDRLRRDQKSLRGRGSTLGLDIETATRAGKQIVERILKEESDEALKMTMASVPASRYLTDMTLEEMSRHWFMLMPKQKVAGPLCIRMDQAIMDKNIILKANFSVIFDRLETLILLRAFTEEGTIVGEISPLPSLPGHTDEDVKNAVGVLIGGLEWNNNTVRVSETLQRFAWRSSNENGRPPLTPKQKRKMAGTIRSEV

[15] = target: Trypsin (Sus scrofa, UniProt P00761); test: trypsin protease activity blockade – biochemical, quenched peptide fluorescence, cherry-pick, selectivity assay for Rce1 protease inhibitor project, dose response (AID 488789)
Trypsin, sequence (P00761 whole entry): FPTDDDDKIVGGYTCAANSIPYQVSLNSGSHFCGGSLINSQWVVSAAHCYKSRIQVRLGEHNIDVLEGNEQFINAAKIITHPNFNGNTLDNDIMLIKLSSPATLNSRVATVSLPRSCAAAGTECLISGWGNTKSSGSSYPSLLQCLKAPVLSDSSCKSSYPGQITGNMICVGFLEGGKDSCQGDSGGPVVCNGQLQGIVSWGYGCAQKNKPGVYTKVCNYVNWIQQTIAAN

[16] = target: CAAX prenyl protease 2 (Homo sapiens, UniProt Q9Y256); test: inhibition of Ras-converting CAAX protease Rce1 – biochemical, yeast membranes, quenched-peptide fluorescence, cherry-pick, dose response (AID 588849)
CAAX prenyl protease 2, sequence (Q9Y256 whole entry): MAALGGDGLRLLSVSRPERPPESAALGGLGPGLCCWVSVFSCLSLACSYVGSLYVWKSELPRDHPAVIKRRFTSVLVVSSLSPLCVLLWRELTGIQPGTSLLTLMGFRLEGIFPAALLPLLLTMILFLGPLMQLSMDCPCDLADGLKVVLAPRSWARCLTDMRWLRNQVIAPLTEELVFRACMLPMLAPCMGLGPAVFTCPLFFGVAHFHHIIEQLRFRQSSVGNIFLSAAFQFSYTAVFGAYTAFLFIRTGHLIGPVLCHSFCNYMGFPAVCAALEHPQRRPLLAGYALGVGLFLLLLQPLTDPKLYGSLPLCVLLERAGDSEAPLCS

[17] = test system: A-375; test: proliferation inhibition in MITF-low A375 cells – cell-based, cherry-pick samples, set 2, counter-screen for MITF modulator project, dose response (AID 540335); assay type: functional; settings: Homo sapiens
[18] = test system: A-375; test: MITF: Counter assay: A375 proliferation Measured in Cell-Based System Using Plate Reader - 2084-03_Inhibitor_Dose_DryPowder_Activity. [Related pubchem assays (depositor defined):AID488944]; assay type: functional; settings: Homo sapiens

## CCOc1cccc2sc(NC(=O)c3ccc(C#N)cc3)nc12
[1]
  IC50: > 99 µM (inactive)
[2]
  IC50: > 99 µM (inactive)
[3]
  IC50: > 99 µM (inactive)
[4]
  IC50: > 99 µM (inactive)

## Cc1ccccc1OCC(=O)Nc1nnc(-c2ccncc2)s1
[5]
  AC50: 39.7 µM (active)

## CN(C)CCCN(C(=O)c1ccc(S(=O)(=O)N2CCCCCC2)cc1)c1nc2c(F)cc(F)cc2s1
[6]
  EC50: > 92.4 µM (inactive)
[7]
  EC50: 33.4 µM (inactive)
[8]
  EC50: 5.31 µM (active)
[9]
  EC50: > 92.4 µM (inactive)

## CC(Nc1nc(-c2cccnc2)nc2ccccc12)c1ccc(F)cc1 (stereo not drawn)
[10]
  EC50: 658 nM (active)
[11]
  AC50: 9.34 µM (active)
[12]
  EC50: 14.4 µM (active)

## O=C(CSC1=NCCS1)c1ccc(Cl)cc1
[13]
  AC50: 28 µM (active)

## Cc1cc(N2CCN(C)CC2)ccc1NC(=O)c1ccc(-c2ccc(Cl)cc2)o1
[6]
  EC50: > 92.4 µM (inactive)
[7]
  EC50: > 92.4 µM (inactive)
[10]
  EC50: 254 nM (active)
[8]
  EC50: 0.749 µM (active)
[12]
  EC50: 9.64 µM (active)
[9]
  EC50: > 92.4 µM (inactive)
[14]
  IC50: 44 µM (active)

## Cc1cc(=O)oc2c3c(cc(OCC(=O)N4CCC(C(=O)O)CC4)c12)OC(C)(C)CC3
[15]
  AC50: 1.51 µM (active)
[16]
  AC50: 1.28 µM (active)

## CN(C(=O)C(=O)c1c[nH]c2ccccc12)C1CCCCC1
[1]
  IC50: > 99 µM (inactive)
[2]
  IC50: > 99 µM (inactive)
[3]
  IC50: > 99 µM (inactive)
[4]
  IC50: > 99 µM (inactive)

## O=C(NCc1ccc2c(c1)OCO2)c1cc(O)nc2ccccc12
[17]
  AC50: > 35 µM (active)
[18]
  AC50: > 35 µM (active)

## CCOC(=O)c1c(-c2ccc(OC)cc2)oc2ccc(OC(=O)N(C)C)cc12
[16]
  AC50: 6.46 µM (active)

## Cc1ccc(CNc2ncnc3ccc(-c4ccc5c(c4)OCO5)cc23)o1
[11]
  AC50: 0.0226 µM (active)

## O=C(NCc1ccco1)c1ccc(COCC(F)(F)F)cc1
[17]
  AC50: > 35 µM (active)
[18]
  AC50: > 35 µM (active)

## C=CCn1c(SCC(=O)NCc2ccc3c(c2)OCO3)nnc1-c1cccnc1
[5]
  AC50: 50.2 µM (active)
